In brackets after ≈: the same amount, converted by molar mass. Like-named read-outs stand apart in the source and are kept apart here. No end group written: not given here.
Legend:
[1] = test system: Klebsiella pneumoniae JCM 1662; test: microbe, parasite or virus in culture; type: cell-based; conditions: for MIC: Klebsiella pneumoniae, JCM1662
Summary of the method: (§1)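 Visual MIC by microdilution in MHB; ~10^5 CFU/mL final; peptide solution prepared at 128 μg/mL; 37° C for 16–24 h or a strain-suited time.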

[2] = test system: Escherichia coli ATCC 25922; test: microbe, parasite or virus in culture; type: cell-based; conditions: for MIC: Escherichia coli, ATCC25922, read-out: MIC Escherichia coli
Summary of the method: as §1

[3] = test system: Staphylococcus epidermidis JCM 2414; test: microbe, parasite or virus in culture; type: cell-based; conditions: for MIC: Staphylococcus epidermidis, JCM2414, read-out: MIC Staphylococcus epidermidis
Summary of the method: as §1

[4] = test system: methicillin-sensitive Staphylococcus (MSSA) MSSA(ii); test: organism not typed; conditions: for MIC: read-out: MIC MSSA(ii)
Procedure: (§2) Bacteria (Escherichia coli ATCC 25922, Pseudomonas aeruginosa ATCC 27853, Staphylococcus aureus ATCC29213, Klebsiella pneumoniae JCM 1662, Enterobacter cloacae JCM 1232, Enterobacter aerogenes JCM 1235 and Staphylococcus epidermidis JCM 2414) were inoculated to Mueller-Hinton broth: MHB or LB medium, and cultured at a temperature and period suited for each strain. From the thus obtained colonies, each strain was inoculated to a fresh liquid medium and cultured for 16 to 20 hours. Then an aliquot having a volume (10 to 50 appropriate to each strain was inoculated to a fresh liquid medium and cultured for 4 to 6 hours, followed by the measurement of the absorbance at 600 nm. After comparing the turbidity with McFarland #0.5, the resultant was diluted with a medium. Each strain was added to about 10^5 CFU/mL (final concentration).
(§3) Further, the antibacterial activities against the clinical strains collected and isolated from infected patients were also examined. The tests were carried out for two methicillin-resistant Staphylococcus (MRSA) (MRSA (i) and (ii)), two methicillin-sensitive Staphylococcus (MSSA) (MSSA (i) and (ii)), five Pseudomonas aeruginosa, Pseudomonas aeruginosa 1, Pseudomonas aeruginosa 6, Pseudomonas aeruginosa 8. Pseudomonas aeruginosa 9 and Pseudomonas aeruginosa 12, totally 9 clinical strains. The MRSA and MSSA clinical strains were tested by the same method as Staphylococcus aureus ATCC29213, and Pseudomonas clinical strains were tested by the same method as Pseudomonas aeruginosa ATCC 27853.
(§4) Each of the peptide solutions to be tested was diluted with MHB to obtain a solution of 128 μg/mL. This solution was serially diluted with the medium to prepare peptide-containing media having concentrations of 128, 64, 32, 16, 8.0, 4.0 and 2.0 μg/mL respectively. […] By dilution with sterilized purified water to 1.0 mg/mL, positive control-containing media having concentrations of 16, 8, 4, 2, 1.0, 0.25, 0.12 and 0.06 μg/mL, respectively for TOB; 0.5, 0.12 and 0.06 μg/mL, respectively, for OX; and 16, 8, 4, 2, 1.0, 0.25, 0.12, 0.06, 0.06, 0.03 and 0.008 μg/mL, respectively, for MEPM, were prepared.
(§5) To a 96-well microtiter plate, 0.1 mL of the inoculation solution and 0.1 mL of the peptide- or positive control-containing medium having the respective concentration were added, and cultured at 37° C. for 16 to 24 hours (or a time period suited for the growth of the respective strain). The well not containing the sample was used as a negative control. After the culturing, the growth was visually observed, and the minimum concentration at which the growth was inhibited was defined as the minimum growth inhibition concentration (MIC).
(§6) The medium used in this test for bacteria was Mueller-Hinton broth. Independent experiments were carried out twice or more for each strain.

[5] = test system: methicillin-resistant Staphylococcus (MRSA) MRSA(i); test: organism not typed; conditions: for MIC: read-out: MIC MRSA(i)
Procedure: as §2, §3, §4, §5, §6

[6] = test system: methicillin-resistant Staphylococcus (MRSA) MRSA(ii); test: organism not typed; conditions: for MIC: read-out: MIC MRSA(ii)
Procedure: as §2, §3, §4, §5, §6

[7] = test system: Pseudomonas aeruginosa 12 (clinical strain); test: microbe, parasite or virus in culture; conditions: for MIC: Pseudomonas aeruginosa, read-out: MIC Pseudomonas aeruginosa 12
Procedure: as §2, §3, §4, §5, §6

[8] = test system: Pseudomonas aeruginosa 9 (clinical strain); test: microbe, parasite or virus in culture; conditions: for MIC: Pseudomonas aeruginosa, read-out: MIC Pseudomonas aeruginosa 9
Procedure: as §2, §3, §4, §5, §6

[9] = test system: Pseudomonas aeruginosa 6 (clinical strain); test: microbe, parasite or virus in culture; conditions: for MIC: Pseudomonas aeruginosa, read-out: MIC Pseudomonas aeruginosa 6
Procedure: as §2, §3, §4, §5, §6

[10] = test system: Pseudomonas aeruginosa 1 (clinical strain); test: microbe, parasite or virus in culture; conditions: for MIC: Pseudomonas aeruginosa, read-out: MIC Pseudomonas aeruginosa 1
Procedure: as §2, §3, §4, §5, §6

[11] = test system: Trichophyton rubrum NBRC9185
[12] = test system: Pseudomonas aeruginosa 8 (clinical strain)
Procedure: as §2, §3, §4, §5, §6

[13] = test system: methicillin-sensitive Staphylococcus (MSSA) MSSA(i); test: organism not typed; conditions: Table 4; clinical strain; first/second value where not identical
Procedure: as §2, §3, §4, §5, §6

[14] = test system: Acinetobacter baumanni JCM6841
[15] = test system: Actinobacillus actinomycetemcomitans JCM2434
[16] = Table 4, two tests, first/second value where not identical
[17] = methicillin-sensitive Staphylococcus (ii)
[18] = methicillin-resistant Staphylococcus (i)
[19] = Table 4, clinical strain, first/second value where not identical
[20] = methicillin-resistant Staphylococcus (ii)

Compound | MIC Trichophyton rubrum ([11]; NBRC9185) | MIC Klebsiella pneumoniae ([1]; JCM 1662) | MIC Escherichia coli ([2]; ATCC 25922) | MIC Pseudomonas aeruginosa 8 ([12]; 8 (clinical strain)) | MIC MSSA(i) [13] | MIC MSSA(ii) [4, 17] | MIC MRSA(i) [5, 18] | MIC Acinetobacter baumanni ([14]; JCM6841) | MIC Pseudomonas aeruginosa 12 [7, 19] | MIC Pseudomonas aeruginosa 9 [8, 19] | MIC Actinobacillus actinomycetemcomitans [15] | MIC Staphylococcus epidermidis [3, 16] | MIC Pseudomonas aeruginosa 6 [9, 19] | MIC Trichophyton rubrum [11, 16] | MIC Pseudomonas aeruginosa 1 [10, 19] | MIC Escherichia coli [2, 16] | MIC MRSA(ii) [6, 20] | further results
C[C@@H](O)[C@H]1C(=O)N2C(C(=O)O)=C(S[C@@H]3CN[C@H](C(=O)N(C)C)C3)[C@H](C)[C@H]12 [meropenem, reference compound] | – | – | – | – | – | – | – | – | – | – | – | – | – | – | – | – | – | MIC [1, 16]: < 4000 µg/mL; MIC [2, 16]: 0.008 to 0.06 µg/mL (≈ 0.0209 to 0.156 µM); MIC [3, 16]: 0.03 to 0.12 µg/mL (≈ 0.0782 to 0.313 µM); MIC [4]: 4 to 8 µg/mL (≈ 10.4 to 20.9 µM); MIC [5]: < 4000 µg/mL; MIC [6]: 8 to 16 µg/mL (≈ 20.9 to 41.7 µM); MIC [7]: < 4000 µg/mL; MIC [8]: < 4000 µg/mL; MIC [9]: 8 to 16 µg/mL (≈ 20.9 to 41.7 µM); MIC [10]: < 4000 µg/mL
NC[C@H]1O[C@H](O[C@H]2[C@H](O)[C@@H](O[C@H]3O[C@H](CO)[C@@H](O)[C@H](N)[C@H]3O)[C@H](N)C[C@@H]2N)[C@H](N)C[C@@H]1O [tobramycin, reference compound] | – | – | – | – | – | – | – | – | – | – | – | – | – | – | – | – | – | MIC [1, 16]: < 4000 µg/mL; MIC [2, 16]: 0.25 to 1 µg/mL (≈ 0.535 to 2.14 µM); MIC [3, 16]: 0.12 to 1 µg/mL (≈ 0.257 to 2.14 µM); MIC [4]: 4 µg/mL (≈ 8.56 µM); MIC [5]: > 16000 µg/mL; MIC [6]: > 16000 µg/mL; MIC [7]: < 4000 µg/mL; MIC [8]: < 4000 µg/mL; MIC [9]: < 4000 µg/mL; MIC [10]: > 16000 µg/mL
GRLKRMGERLKRKIQKWIRW-NH2 [SRP-15] | 64 µg/mL | 16 µg/mL | 16 µg/mL | 16 µg/mL | 16/32 | 16 µg/mL | 16 µg/mL | 32 µg/mL | 8/16 | 8/64 | 32 µg/mL | – | – | – | – | – | – | MIC Staphylococcus epidermidis ([3]; JCM 2414): 8 µg/mL; MIC MRSA(ii) [6, 19]: 16/32; MIC Pseudomonas aeruginosa 6 ([9]; 6 (clinical strain)): 16 µg/mL; MIC Pseudomonas aeruginosa 1 ([10]; 1 (clinical strain)): 16 µg/mL
GRLKRMGKRLKRKIQKWARW-NH2 [SRP-14] | 32 µg/mL | – | 16 µg/mL | 16 µg/mL | 16/32 | – | – | 64 µg/mL | 8/16 | 16/32 | 64 µg/mL | 8/16 | 8/16 | – | – | – | – | MIC Klebsiella pneumoniae [1, 16]: 16/128; MIC MSSA(ii) [4, 19]: 16/32; MIC MRSA(i) [5, 19]: 16/32; MIC MRSA(ii) [6, 19]: 16/32; MIC Pseudomonas aeruginosa 1 ([10]; 1 (clinical strain)): 16 µg/mL
IFLHRLKRMRKRLKRKLRLW-OH [SRP-7] | – | – | 32 µg/mL | 32 µg/mL | – | – | – | 128 µg/mL | – | 64/128 | 128 µg/mL | – | 16/64 | 64/32 | 32/64 | – | – | MIC Klebsiella pneumoniae [1, 16]: 16/64; MIC Staphylococcus epidermidis ([3]; JCM 2414): 8 µg/mL; MIC Pseudomonas aeruginosa 12 ([7]; 12 (clinical strain)): 16 µg/mL
KLIFLHRLKRELRKRLKRKLR-NH2 [SRP-13] | – | 32 µg/mL | – | 16 µg/mL | 16/32 | 16 µg/mL | 64 µg/mL | – | 8/16 | – | 128 µg/mL | 4/8 | 8/16 | 128/64 | 16/32 | 16/32 | 64 µg/mL | MIC Acinetobacter baumanni [14, 16]: 16/32; MIC Pseudomonas aeruginosa 9 ([8]; 9 (clinical strain)): 64 µg/mL
KLIFLRELRRLRKRLKRKLR-NH2 [SRP-16] | – | 64 µg/mL | – | 16 µg/mL | 16/32 | 16 µg/mL | 32 µg/mL | 128 µg/mL | 8/16 | – | 128 µg/mL | 8/16 | – | 64/32 | 16/32 | 16/32 | 64 µg/mL | MIC Pseudomonas aeruginosa 9 ([8]; 9 (clinical strain)): 64 µg/mL; MIC Pseudomonas aeruginosa 6 ([9]; 6 (clinical strain)): 16 µg/mL
KNLRRIIRKIIHIIKKYG-NH2 [Ovispirin-1, reference compound] | 64 µg/mL | – | – | – | 16/32 | 16 µg/mL | 32 µg/mL | – | 16/32 | 32/128 | 128 µg/mL | 8/16 | 32/64 | – | 16/64 | 8/16 | 32 µg/mL | MIC Klebsiella pneumoniae [1, 16]: 8/16; MIC Pseudomonas aeruginosa 8 [12, 19]: 32/64; MIC Acinetobacter baumanni [14, 16]: 4/8
LIFLHRLKRMRKRLKRKLRL-NH2 [SRP-12] | – | 128 µg/mL | 32 µg/mL | – | 16 µg/mL | 16 µg/mL | 32 µg/mL | – | – | 16/64 | – | 4/8 | 32/64 | – | 16/32 | – | – | MIC Pseudomonas aeruginosa 8 [12, 19]: 32/64; MIC MRSA(ii) [6, 19]: 32/64; MIC Pseudomonas aeruginosa 12 ([7]; 12 (clinical strain)): 16 µg/mL
RLKRMRKRLKRKLRLW-NH2 [SRP-17] | – | 32 µg/mL | – | – | – | – | – | 128 µg/mL | 16/64 | 64/128 | > 128 µg/mL | 4/8 | 32/64 | 64/32 | 32/64 | 16/32 | – | MIC Pseudomonas aeruginosa 8 [12, 19]: 64/128
RLKRMRKRLKRKLRLWHRKRYK-NH2 [SRP-8] | 128 µg/mL | 32 µg/mL | – | 16 µg/mL | 32/64 | 32 µg/mL | 64 µg/mL | 128 µg/mL | 16/32 | 16/64 | > 128 µg/mL | 8/16 | – | – | 16/32 | 16/32 | 64 µg/mL | MIC Pseudomonas aeruginosa 6 ([9]; 6 (clinical strain)): 16 µg/mL
